Values quoted from earlier work as cited in US20210000972A1, “NANOPARTICLES FOR SUSTAINED OPHTHALMIC DRUG DELIVERY AND METHODS OF USE” (2C TECH CORP., priority 2017, published 2021).
Like-named read-outs stand apart in the source and are kept apart here. Values belong to the molecule of their own block, whether it stands above or below them.

Molecule: Avastin: an antibody used for the treatment of macular edema
half-life (intravitreal antibody): 140 h
time detectable (intravitreal antibody): > 30 days
systemic delivery after intravitreal administration (untreated contralateral eye): found in the untreated contralateral eye

half-life (intravitreal suspension, 4 mg): 576 h
time the drug lasted (intravitreal suspension, the two doses administered (4 mg and 16 mg)): 4 to 6 months
Molecule: CC1(C)O[C@@H]2C[C@H]3[C@@H]4CCC5=CC(=O)C=C[C@]5(C)[C@@]4(F)[C@@H](O)C[C@]3(C)[C@]2(C(=O)CO)O1 [triamcinolone acetonide]

half-life (intravitreal): 12 h
Molecule: O=C(O)P(=O)(O)O [foscarnet]

duration of constant concentration (sustained release form (embedded in a lactic co-glycolic copolymer)): one
Molecule: C[C@@H]1C[C@H]2[C@@H]3CCC4=CC(=O)C=C[C@]4(C)[C@@]3(F)[C@@H](O)C[C@]2(C)[C@@]1(O)C(=O)CO [dexamethasone]
